We go through seven compounds from PubChem BioAssay (NCI).

Where “and” joins values, the source holds several entries; their conditions need not be identical. Equal values may be shown once.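 48-hour exposure; five concentrations; linearly interpolated endpoints. The concentration for 50% growth inhibition is given as GI50. TGI: concentration producing complete growth inhibition.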

Some test systems named below: HCC-2998 colon; HCT-15 colon; SF-268 CNS; NCI-H460 lung; HS 578T breast; MOLT-4 leukemia; NCI-H522 lung; A549 NSCLC; SK-OV-3 ovarian; IGROV1 ovarian.
What all share (assay): growth of human tumour cells (NCI), 48 h

As for `Cn1cc(-c2cc3c(Nc4ccc(CC(=O)Nc5cc(C(C)(C)C)on5)cc4)ncnc3[nH]2)cn1`, the GI50 is 1.34 µM and 0.652 µM in the test on HCC-2998 colon; 3.26 µM and 2.91 µM with HCT-15 colon; 0.444 µM and 0.348 µM with SF-268 CNS; 1.04 µM and 1.26 µM in the test on NCI-H460 lung; 0.42 µM and 0.276 µM in the test on HS 578T breast; 0.401 µM and 0.324 µM in the test on MOLT-4 leukemia. The GI50 was 0.469 µM and 0.528 µM in the test on NCI-H522 lung; 2.42 µM and 2.84 µM with A549 NSCLC; 1.43 µM and 2.02 µM with SK-OV-3 ovarian; 1.1 µM and 0.948 µM with IGROV1 ovarian. In addition, the TGI was 7.5 µM and 4.82 µM in the test on HCC-2998 colon; 13.8 µM and 10.3 µM in the test with HCT-15 colon; 1.67 µM and 1.18 µM with SF-268 CNS; 3.65 µM and 6.22 µM in the test on NCI-H460 lung; 1.72 µM and 1.56 µM with HS 578T breast; 11.4 µM and 2.38 µM in the test with MOLT-4 leukemia. Moreover, the TGI in the test with NCI-H522 lung was 3.33 µM and 4.48 µM; in the test with A549 NSCLC, 8.76 µM and 10.5 µM; in the test on SK-OV-3 ovarian it was 6.01 µM and 6.84 µM; with IGROV1 ovarian it was 5.84 µM and 5.24 µM.

As for `O=S(=O)(c1cccc(C(F)(F)F)c1)N1c2ccccc2-n2cccc2C1c1cccnc1` (stereo not given), the TGI is 43.7 µM with HCC-2998 colon; greater than 91.4 µM with HCT-15 colon; greater than 66 µM with SF-268 CNS; greater than 51.1 µM in the test on NCI-H460 lung; greater than 76.3 µM with HS 578T breast; greater than 56.6 µM with MOLT-4 leukemia. Besides, the TGI with NCI-H522 lung was greater than 53.6 µM; in the test with A549 NSCLC, greater than 56.4 µM; in the test with SK-OV-3 ovarian, greater than 78.9 µM; in the test on IGROV1 ovarian, greater than 100 µM.

As for `O=C1Nc2ccc(Cl)cc2/C1=C\c1c(-c2ccc(F)cc2)nc2ccccn12`, the GI50 in the test on HCC-2998 colon was 2.01 µM; in the test with HCT-15 colon, 3.15 µM; in the test on SF-268 CNS, 2.34 µM; in the test with NCI-H460 lung it was 2.35 µM; in the test with HS 578T breast it was 2.2 µM; in the test with MOLT-4 leukemia, 2.89 µM. For the same compound, the GI50 was 2.17 µM with NCI-H522 lung, 2.14 µM with A549 NSCLC, 2.18 µM in the test on SK-OV-3 ovarian and 3.06 µM in the test with IGROV1 ovarian. The TGI is 5.1 µM with HCC-2998 colon; 16.2 µM in the test on HCT-15 colon; 6.04 µM in the test with SF-268 CNS; 5.89 µM in the test on NCI-H460 lung; 8.37 µM in the test on HS 578T breast; 8.13 µM in the test on MOLT-4 leukemia. Further, the TGI in the test on NCI-H522 lung came to 5.42 µM; in the test with A549 NSCLC, 5.17 µM; in the test with SK-OV-3 ovarian, 5.06 µM; in the test with IGROV1 ovarian it was 8.58 µM.

As for `COc1ccc(OC)c(/C=C/[N+](=O)[O-])c1`, the GI50 with HCC-2998 colon was 4.24 µM and 4.38 µM; with NCI-H460 lung it was 2.91 µM; in the test with MOLT-4 leukemia, 1.1 µM and 2.52 µM; with A549 NSCLC it was 2.85 µM; in the test on IGROV1 ovarian it was 2 µM and 3.79 µM. The TGI with HCC-2998 colon was 10.4 µM and 7.54 µM; with HCT-15 colon it was 17.1 µM and 6.73 µM; with SF-268 CNS, 10 µM and 12.3 µM; in the test with NCI-H460 lung, 9.32 µM and 13.9 µM; with HS 578T breast, 14.6 µM; in the test with MOLT-4 leukemia it was 5.31 µM and 9.59 µM. Also, the TGI with NCI-H522 lung was 2.96 µM and 4.78 µM; with A549 NSCLC it was 15.4 µM and 13.6 µM; in the test on SK-OV-3 ovarian, 26.2 µM and 10.3 µM; with IGROV1 ovarian it was 6.97 µM and 8.79 µM.

Take `Nc1ccccc1C#C/C=C\C#Cc1ccc(F)cc1F`: the GI50 was 2.57 µM in the test on HCC-2998 colon; 14.1 µM with HCT-15 colon; 5.95 µM with SF-268 CNS; 12.9 µM in the test with NCI-H460 lung; 13.2 µM in the test on HS 578T breast; 3.05 µM with MOLT-4 leukemia. For the same compound, the GI50 in the test with NCI-H522 lung was 13.8 µM; with A549 NSCLC it was 16.8 µM; in the test on SK-OV-3 ovarian, 27.4 µM; in the test on IGROV1 ovarian it was 12.7 µM. The TGI with HCC-2998 colon is 12.6 µM; in the test on HCT-15 colon, 31.7 µM; in the test on SF-268 CNS it was 25.4 µM; in the test on NCI-H460 lung, 28.7 µM; in the test with HS 578T breast, 30.5 µM; with MOLT-4 leukemia, greater than 100 µM. Also, the TGI with NCI-H522 lung is 35.2 µM; in the test on A549 NSCLC it was 67.7 µM; with SK-OV-3 ovarian it was 66.7 µM; in the test with IGROV1 ovarian it was 40.7 µM.

`O=C(c1ccccc1)c1ccc(-c2ccc(O)cc2)cc1`: the GI50 with HCC-2998 colon is 15.2 µM; with HCT-15 colon it was 5 µM; in the test on SF-268 CNS, 5.85 µM; in the test on NCI-H460 lung it was 4.2 µM; in the test on HS 578T breast, 17.3 µM; in the test with MOLT-4 leukemia, 4.28 µM. The GI50 in the test on NCI-H522 lung is 1.66 µM; in the test on A549 NSCLC, 3.9 µM; in the test with SK-OV-3 ovarian, 14.8 µM; with IGROV1 ovarian it was 3.69 µM. For the same compound, the TGI in the test with HCC-2998 colon is 43.9 µM; in the test on HCT-15 colon it was 27.7 µM; in the test on SF-268 CNS, 57.3 µM; in the test on NCI-H460 lung, 39.3 µM; in the test on HS 578T breast it was greater than 53.3 µM; in the test on MOLT-4 leukemia, 33.4 µM. Further, the TGI in the test with NCI-H522 lung is 8.47 µM; in the test with A549 NSCLC, greater than 65.3 µM; with SK-OV-3 ovarian, greater than 71.6 µM; with IGROV1 ovarian it was 22.7 µM.

Turning to `Cn1ncc2cc(-c3cnc(N)c(Cl)c3N3CCC4(CCNC4=O)CC3)ccc21`, the GI50 in the test with HCC-2998 colon was greater than 100 µM; with HCT-15 colon it was 22.7 µM; in the test with SF-268 CNS, 21.3 µM; in the test with NCI-H460 lung it was 59 µM; in the test with HS 578T breast, 19.8 µM; with MOLT-4 leukemia it was 20.7 µM. For the same compound, the GI50 in the test with NCI-H522 lung is 60.7 µM; in the test with A549 NSCLC, greater than 100 µM; in the test with SK-OV-3 ovarian it was 31.5 µM; in the test on IGROV1 ovarian, 14.8 µM. For the same compound, the TGI in the test on HCC-2998 colon is greater than 100 µM; with HCT-15 colon it was greater than 100 µM; with SF-268 CNS, greater than 100 µM; in the test on NCI-H460 lung, greater than 100 µM; in the test with HS 578T breast, 89.5 µM; with MOLT-4 leukemia, greater than 100 µM. Moreover, the TGI in the test on NCI-H522 lung, in the test on A549 NSCLC, in the test on SK-OV-3 ovarian and in the test on IGROV1 ovarian was greater than 100 µM in each case.
